# Laboratory results: patent US20230257385A1, “SALT AND SOLID FORMS OF TABERNANTHALOG” (priority 2021, published 2023)
# Experiments:
# [1] = reported by Dong et al., Olson et al., Cameron et al.; cited from earlier work
# 5-HT2A = 5-HT2A (Homo sapiens, UniProt P28223); settings: reported by Dong et al., Olson et al., Cameron et al.; cited from earlier work
# [2] = Calibration curve of non-ionized Tabernanthalog / HPLC sample diluent selection; type: physicochemical; settings: acetonitrile/water
# Excerpt: Separate portions of Tabernanthalog (native) were weighed out into aluminum boats and were charged to the relevant volumetric flasks. […] Peak areas of the calibrants were plotted against concentration to generate the corresponding calibration curve with slope 27622 and R^2 0.9917 (FIG. 437).
# It is noted that tabernanthalog is insoluble in typical HPLC sample diluents, acetonitrile/water. Therefore, DMSO and water were investigated as sample diluents.
# Thus, DMSO/water (1/1, v/v) was selected as the appropriate diluent composition to perform the study and generate the calibration curve, for the SIF panel solubility.
# [3] = Heat-up/cool-down crystallisation screen of sorbate salt (Example 10, Experiments 5, 8); type: physicochemical; settings: Experiment 8; repeat of HUCD crystallisations; dried ca. 2 h under N2 flux at ambient temperature
# [4] = as above; type: physicochemical; settings: Experiment 8; repeat of HUCD crystallisations aiming at Pattern #1 (water) and Pattern #6 (heptane/ethyl formate); wet pellet
# Protocol: The relevant solvent (0.225 ml, 3.0 vol) was added to the appropriate vial and the suspensions were stirred and warmed to temperature. If dissolution was not observed, further solvent was added until the solute dissolved, or aliquots of a secondary co-solvent were added to complete dissolution. Once dissolved, the solutions were left to cool down and stand undisturbed under sub-ambient conditions for several days. After crystallisation was judged complete, the products were isolated by centrifugation and the pellets were dried at 40° C. under reduced pressure. Products from the crystallisation (wet and dry) were initially analysed by XRPD (9-minute method), further analyses of certain products were performed by ^1H NMR, DSC and TGA, if the diffraction pattern indicated differences.
# [5] = Dynamic vapour sorption (DVS) of selected salts (Example 8); type: physicochemical; settings: 0 to 90 to 0% RH, 25° C., dm/dt 0.002%/min
# How it was run: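 Sorption/desorption isotherms on 20–50 mg sample at 25°C after 60 min at 0% RH: 5% steps to 30%, 10% steps to 90%, then reverse. Equilibrium criterion dm/dt 0.002%/min; kinetic and isotherm curves derived.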
# [6] = Equilibrium humidity evaluation 75% RH/40° C., 10 days (Example 8, Experiment 6); type: physicochemical; settings: 75% RH/40° C.
# How it was run: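 Tabernanthalog salt powders (100 mg) were spread evenly in open vials and held at 40 °C and 75% RH. Sub-samples taken at 5 and 10 days were analysed by ^1H NMR, HPLC, XRPD, DSC, TGA and PLM for phase change, chemical degradation and residual solvent.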
# [7] = DVS analyses of the monofumarate salt (Example 5, Experiment Reference 4); type: physicochemical; settings: mass equilibrated, 0 to 90% to 0% RH, 25° C.
# Protocol: (§1) The moisture sorption properties of the feed API were analyzed by DVS Intrinsic instrument (Surface Measurement System). Approximately 20 to 50 mg of API was weighed onto an aluminum pan and loaded into the instrument equilibrated at 25° C. The sample was equilibrated under a dry atmosphere (0% relative humidity) for 60 minutes, before increasing the humidity from 0% to 30% at 5% step increment and from 30% to 90% at 10% step increment. A desorption cycle was also applied from 90% to 30% (10% step decrement) and from 30% to 0% (5% step decrement). A rate of change in mass per time unit (dm/dt) of 0.002%/min was set as the equilibrium parameter. Kinetic and isotherm graphs were calculated.
# as §1, with “feed API (active pharmaceutical ingredient) were analyzed” for “feed API were analyzed”, “step decrement). […] Kinetic and” for “step decrement). A rate of change in mass per time unit (dm/dt) of 0.002%/min was set as the equilibrium parameter. Kinetic and”, “were calculated. […]” for “were calculated.”
# [8] = Solubility determinations in SIF buffers FaSSIF, FeSSIF, FaSSGF (Example 8, Experiment 5); settings: 37 °C, thermodynamic from solid
# How it was run: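 Suspensions in FaSSIF, FeSSIF or FaSSGF held at 37° C for 24 h, sampled at set time points and centrifuged. Pellets checked by XRPD, wet and dried, for form change.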
# Sequence of 5-HT2A (P28223 whole entry): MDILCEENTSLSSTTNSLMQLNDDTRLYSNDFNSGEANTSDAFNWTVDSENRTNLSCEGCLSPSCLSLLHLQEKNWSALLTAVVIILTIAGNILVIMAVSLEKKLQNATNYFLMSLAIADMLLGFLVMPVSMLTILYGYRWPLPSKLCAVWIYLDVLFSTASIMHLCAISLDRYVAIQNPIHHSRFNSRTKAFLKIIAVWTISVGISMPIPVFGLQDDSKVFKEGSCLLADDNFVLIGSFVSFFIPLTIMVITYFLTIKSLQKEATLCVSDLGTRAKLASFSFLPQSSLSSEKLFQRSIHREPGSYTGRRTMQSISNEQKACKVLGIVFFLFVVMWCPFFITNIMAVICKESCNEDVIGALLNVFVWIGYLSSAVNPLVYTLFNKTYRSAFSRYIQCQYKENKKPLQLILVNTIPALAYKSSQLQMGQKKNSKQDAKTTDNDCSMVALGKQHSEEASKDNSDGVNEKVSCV
smiles,measurement,setting,value
"COc1ccc2c3c([nH]c2c1)CCN(C)CC3 [tabernanthalog, 8-methoxy-3-methyl-1,2,3,4,5,6-hexahydroazepino[4,5-b]indole]",hallucinogenic effect,[1],non-hallucinogenic
same,5-HT2A activity,5-HT2A,have 5-HT2A activity
same,solubility in typical HPLC sample diluents,[2],insoluble
CC=CC=CC(=O)O.COc1ccc2c3c([nH]c2c1)CCN(C)CC3 [Experiment 8-Sample B],XRPD (under nitrogen flow),[3],Form A
same,"XRPD (centrifuged, wet)",[4],Form A
"COc1ccc2c3c([nH]c2c1)CCN(C)CC3.O=C(O)/C=C/C(=O)O [8-Methoxy-3-methyl-2,4,5,6-tetrahydro-1H-azepino[4,5-b]indole fumarate salt (polymorph Form A)]",DVS sorption/desorption isotherm,[5],"hygroscopic isotherm, with negligible hysteresis"
same,change in chemical purity (trended HPLC),[6]; after 10 days,slight decrease in chemical purity
same,"water uptake / hydrate formation (TGA, DSC)",[6]; t=5 d and t=10 d,no significant water uptake
same,powder diffraction pattern versus input (form stability),[6]; t=5 days and t=10 days,resembled the input phase
same,DVS isotherm,[7],hygroscopic isotherm with negligible hysteresis
same,solubility at 24 h,"[8]; pH 1.6, fassgf or other biorelevant",> 30 mg/mL
same,solubility at 24 h,"[8]; pH 5, fessif",> 30 mg/mL
same,solubility at 24 h,"[8]; pH 6.5, fassif",> 30 mg/mL
